The source of these data is patent US10780061B2, “Composition comprising farnesol and use thereof” (Daegu Gyongbuk Institute of Science and Technology, priority 2014, dated 2020).

The test system of one series is SDH enzyme activity. The series is described as follows: SDH staining of hind limb muscles, high fat diet model. As to conditions: high fat diet with 0.5% compound, 3 months. Type of series: in vivo, mouse. The source says: To prepare the PGC-1α-inhibited model, 3-month-old mouse (female, body weight of 20 g) is fed with high fat diet, in which fat is increased to 60%, compared to a negative control group, for 5 days (short-term effect) or 3 months (long-term effect). The negative control group is fed with a general diet. Farnesol is mixed in the high fat diet at a content of 0.5% (weight of farnesol/weight of diet). A positive control group is fed with high fat diet containing a type II diabetes drug, metformin at a content of 0.5% (weight of metformin/weight of diet). Mice are fed with the general diet, the high fat diet, and the high fat diet containing farnesol or metformin for 3 months, and then hind limbs are removed to analyze muscle differentiation and mitochondrial enzyme activity.

Series [1] in a line: Energy expenditure of old mice (Oxylet calorimetry). Type of series: in vivo, mouse. As to conditions: farnesol diet 4 months. As for the experimental part: 22-month-old female mice (weighing 30 g) are fed with a control diet and a farnesol diet for 4 months. That is, 22-month-old mice are fed for 4 months, and then 26-month-old mice are analyzed. […] The same mouse is used as a control group, except that it is fed with a diet containing no farnesol. Muscle strength, energy expenditure, glucose tolerance, and fat accumulation of each mouse are evaluated. […] To measure energy expenditures of old mice administered with farnesol, mice are bred in a measurement apparatus, Oxylet system (calorimetry apparatus, Panlab Harvard apparatus) for 2 days. A METABOLISM software connected with metabolic measurement modules is used for analysis of energy expenditure.

The next series concerns AMPK and p38 MAPK. The series is described as follows: Immunoblot of pAMPK and pp38 in farnesol-treated C2C12 myoblasts. It is filed as cell-based. The settings on record: 0.1 μM farnesol, 48 hours. As for the experimental part:
The C2C12 myoblasts are cultured in DMEM containing 2% horse serum and 0.1 μM farnesol dissolved in DMSO for 48 hours. A control group is cultured in the same manner as above, except that only DMSO is added. Other culture conditions and immunoblot procedure are the same as those described in Section 1 of Example 2. PGC-1α, pAMPK, pp38 and basal forms thereof are subjected to immunoblotting.
Background: Immunoblotting shows a protein as a band on a membrane.

Series [2] in a line: GA muscle mass, lean mass and heart mass of mice according to farnesol administration. Type of series: in vivo, mouse. As for the experimental part: 22-month-old female mice (weighing 30 g) are fed with a control diet and a farnesol diet for 4 months. That is, 22-month-old mice are fed for 4 months, and then 26-month-old mice are analyzed.
The test system of another series is C2C12 myoblasts. The series is described as follows: Immunoblot of PGC-1α and differentiation markers in farnesol-treated myoblasts. Type of series: cell-based. How it is done: DMEM (Dulbecco's Modified Eagle Medium) supplemented with 10% fetal bovine serum is used as a growth medium for culture of C2C12 myoblasts, and DMEM supplemented with 2% horse serum is used as a differentiation medium for differentiation of muscle cells. To induce differentiation of C2C12 myoblasts into muscle cells, 0.1 μM farnesol dissolved in DMSO or various concentrations of farnesol (0.1, 1, 10, 100 uM) are added, and DMSO is only added to a control group. The cells are cultured for 48 hours to induce differentiation, and then a lysis buffer (20 mM Tris-HCl, pH 8, 150 mM NaCl, 1% Triton X, Proteinase Inhibitor) is added to the harvested cells to allow lysis for 30 minutes, followed by centrifugation at 13,000 rpm for 30 minutes. The amount of protein in the cell lysis sample is quantified and an equal amount of protein is subjected to 8% SDS-PAGE. The protein is transferred onto a PVDF membrane, and then incubated in a blocking buffer containing 5% skim milk for 1 hour. HRP (horseradish peroxidase)-conjugated rabbit antibodies specific to individual proteins, diluted in 5% BSA, are reacted with the membrane at 4° C. for 12 hours, and then the membrane is washed with a wash buffer for 5 minutes three times. Thereafter, the membrane is exposed to X-ray film using an ECL reagent (Roche) to confirm protein expression levels.

Series [3] relates to succinic dehydrogenase (SDH). Briefly: SDH staining (mitochondrial enzyme activity) of extensor digitorum longus muscle. Type of series: in vivo, mouse. As for the experimental part: Staining of succinic dehydrogenase (SDH) in the extensor digitorum longus muscle of a mouse administered with farnesol for 5 weeks is performed. This staining method is a method of analyzing mitochondrial activity by measuring activity of SDH which is an enzyme involved in the electron transport chain of mitochondria. Staining degree represents a content of oxidative muscle fiber. Frozen tissue sections are reacted in 0.2 M phosphate buffer (pH 7.4) containing […] sodium succinate and nitro blue tetrazolium (NBT) at 37° C. for 60 minutes, washed with distilled water, and then sealed, followed by observation. Further, farnesol is administered to mice in the same manner as in Section 4 of Example 2, except that 22-month-old mice are used instead of 5-month-old mice and administration is performed for 4 months instead of 5 weeks, and activity of a mitochondrial enzyme according to farnesol administration is analyzed in the extensor digitorum longus muscles of old mice.

Series [4] concerns PARIS-overexpressing muscles. The series is described as follows: SDH staining of PARIS-overexpressing tibialis anterior muscles. It is filed as in vivo, mouse. As to conditions: 22-month-old mice, PARIS-GFP adenovirus in tibialis anterior muscle, 4 days. As for the experimental part:
Control-GFP adenovirus and PARIS-GFP adenovirus are injected into the tibialis anterior muscles of 22-month-old mice (female, body weight of 30 g), respectively. The old mice are fed with a predetermined diet, and 4 days later, muscles are collected and subjected to histological staining and qRT-PCR. For PARIS overexpression, human full-length PARIS cDNA (IMAGE: 30347892; Open Biosystems) (SEQ ID NO:9) is introduced into BamH1 and EcoR1 restriction sites of a viral vector, AAV/CBA-WPRE-bGHpA (containing chicken beta-actin (CBA) promoter and woodchuck hepatitis virus post-transcriptional-regulatory element (WPRE), and bovine growth hormone polyadenylation signal sequence) to prepare a full-length PARIS cDNA-containing AAV/CBA-WPRE-bGHpA vector, and this vector is introduced into the adenovirus-introduced cells. A high titer adenovirus […] is a viral vector manufactured by Viral Vector Core Facility (University of Iowa Carver College). Virus transduction efficiency is evaluated by GFP fluorescence. To evaluate PARIS overexpression and administration effect of farnesol, frozen sections of tibialis anterior muscles are stained for SDH enzyme activity.
Further, similar to the result in C2C12 myoblast models, an oxidative metabolism reduced by PARIS overexpression is also recovered by farnesol treatment in animal models. […]

Where [5] appears, read: old animal, farnesol diet 4 months.
Where [6] appears, read: 0.1-100 uM tested, from 0.1 to 10 uM, FIG. 1B.
Setting [7] is: farnesol-treated myoblasts, FIG. 1A.

`CC(C)=CCC/C(C)=C/CC/C(C)=C/CO` [farnesol, (2E,6E)-3,7,11-trimethyldodeca-2,6,10-trien-1-ol]: the “percentage of muscle fibers showing increased SDH enzyme activity” value in the series on SDH enzyme activity was “increased”. Also, the energy expenditure entry in series [1] is on record as “significantly increased”. In the series with AMPK and p38 MAPK, the pAMPK level result is reported as “does not affect” and the pp38 level entry is “does not affect”. In series [2] (setting [5]), the GA muscle mass is given as 0.099 g, the “heart mass (versus control old animal)” value is 0.156 g and the lean mass stood at 15.3 g. For the same molecule, the “side effects such as muscular hypertrophy” value in series [2] (old animals, farnesol diet 4 months) is “does not cause side effects such as muscular hypertrophy”. Moreover, the “heart mass (versus control young animal)” value in series [2] (printed as farnesol old animal, compared with control young animal) is recorded as 0.115 g. Besides, in the series on C2C12 myoblasts (setting [6]), the “expression of MHC according to farnesol concentration” value is recorded as “increased in myoblasts in a farnesol concentration-dependent manner”, the “expression of PGC-1α according to farnesol concentration” value is listed as “increased in myoblasts in a farnesol concentration-dependent manner” and the “expression of myogenin according to farnesol concentration” value is recorded as “increased in myoblasts in a farnesol concentration-dependent manner”. Further, the “increase in PGC-1α gene expression compared to control group” value in the series with C2C12 myoblasts (farnesol-treated myoblasts, 48 hours, FIG. 1A) is given as “about 2.8 times”. For the same molecule, in the series on C2C12 myoblasts (setting [7]), the “expression of myoblast determination protein (MyoD)” value is on record as “increased”, the “expression of myosin heavy chain (MHC)” value was “increased” and the “expression of troponin T gene” value was “increased”. Further, in series [3] (5-month-old mice, farnesol 5 weeks), the “percentage of the area stained dark (SDH activity) in EDL” value is recorded as “remarkably increased”. In series [3] (22-month-old mice, farnesol 4 months), the “percentage of the area stained dark (SDH activity) in EDL” value is “remarkably increased”. Besides, the “oxidative metabolism (SDH staining) reduced by PARIS overexpression” value in series [4] is recorded as “recovered”.
